The text below walks through data of US20230364062A1, “METHOD OF TREATING MYELOID MALIGNANCIES” (Yeda Research and Development Co. Ltd., priority 2020, published 2023).

Series [1] concerns AML2 SRSF2 (P95H) mutant cell line. Put plainly: Cell viability assay (CellTiter-Glo), drug screen and dose response. Conditions: validation and dose response after primary screen, 48 hours. Format: cell-based, human. The text has this:
(§1) Compound Libraries: Three commercial libraries were used in the screening process: the Bioactive library (New Selleck Collection 2020, n=3727), the Kinom Set (n=187), and the Epigenetic chemical probe library (Structural Genomics Consortium, n=97).
(§2) Cell viability assay: Compounds were dispensed in 384-well plates using an ECHO® 555 liquid handler (Labcyte) and sealed. On day of experiment, the concentrations of isogenic and respective wildtype cell lines were counted using a Countess™ II FL (Invtrogen™) and re-suspended at 40,000 cell/ml. 50 μL of medium was dispensed using a Multidrop™ Combi Reagent Dispenser (Thermo Fisher), bringing the total number of cells in each well to 2000. Cells were incubated for 48 hours. On day of measurement, plates were centrifuged and supernatant was removed using a Washer/Dispenser II (GNF Systems). A Washer/Dispenser II was then used to dispense CellTiter-Glo® (G7572, Promega) as per the manufacturer's instructions. The luminescence signal was then measured using a PHERAstar® FSX (BMG Labtech) and results were analyzed using Genedata Screener®. The viability of treated cells was normalized to a vehicle control, contained on each plate.
(§3) Next, a sensitivity screening of […] chemical compounds from three commercial libraries: the Bioactive collection (New Selleck Collection 2020, n=3727), the Kinom Set (n=187), and the Epigenetic chemical probe library (Structural Genomics Consortium, n=97) was carried out on the isogenic cell lines. Following a primary screen, compounds with higher cytotoxic efficacy in the mutant versus WT cells were chosen for further validation and dose response analysis. Both mutant MOLM14 and AML2 cell lines responded to various ROCK inhibitors (ROCKi), including, GSK429286A, GSK180736A, Y-39983 and specifically to RKI-1447.
In general terms: Cellular ATP, detected with luciferase, serves as a proxy for viable cell number.

In series [2] the test system is MOLM14 SRSF2 (P95H) mutant cell line. Described as above. Format: cell-based, human. Conditions: validation and dose response after primary screen, 48 hours.
Source text: as §1, §2, §3

The test system of series [3] is MOLM14 SRSF2 mutant cell line. Put plainly: Cell cycle analysis after RKI-1447. Format: cell-based, human.
Series [4] relates to MOLM14 wild type cell line. Put plainly: Cell cycle analysis after RKI-1447. Format: cell-based, human. Conditions: 0.5 μM RKI-1447 compared to untreated control. The text has this: (§4) Rho-associated protein kinases (ROCKs or Rho kinases) are key regulators of the actin cytoskeleton and are required for separating cells' duplicated genetic material during cell division to ensure proper partitioning of DNA in to daughter cells. Actin is also linked to RNA polymerase function and associated with many heterogeneous nuclear ribonucleoproteins, and may thus act to affect pre-mRNA processing and regulate transcription. Given this knowledge of ROCKs and actin, it was hypothesized that disrupting the function of ROCKs will result in cell cycle and RNA splicing alteration. In order to test this hypothesis, RNA sequencing and proteomics were performed on isogenic lines prior to and following exposure to RKI-1447. […] One of the significant up regulated protein is CDC20. CDC20 is an activator of anaphase-promoting complex/cyclosome (APC/C), and APC/Cdc 20 activity is critical for metaphase/anaphase transition.

The test system of another series is SRSF2 mutant cells. Kind of series: Nuclear morphology and microtubule structure by confocal microscopy. Conditions: SRSF2 mutant cells following RKI-1447 treatment. Format: cell-based, human. The text has this:
The nuclear morphology and microtubule structure of SRSF2 mutant cells was examined by confocal microscopy following RKI-1447 treatment. […] The surface area of the nucleus of mutant cells was considerably bigger than that of WT cells, and the sphericity was reduced (FIGS. 5B-D).

For series [5], the system named is MOLM14 SRSF2 mutant cells. Put plainly: MOLM14 cell line xenograft model of AML in NSG mice. Format: in vivo. Conditions: NSG mice transplanted with MOLM14 cell line model; compared to the control.
In a further series the test system is SRSF2 mutated AML. Kind of series: AML-PDX models with SRSF2 mutations in NSG mice. Format: in vivo. Conditions: two AML-PDX samples; 3 weeks of treatment from day 35; versus carrier control. On the procedure: To evaluate whether SRSF2 mutated AML is sensitive to RKI-1447, the present inventors studied its effect in vivo with cell line and patient-derived xenograft model of AML. […] Two AML-PDX models with SRSF2 mutations were established that recapitulate the disease in vivo. NSG mice (n=5-10/sample) were injected with one to five million CD3− cells from two patients with SRSF2 mutated AML through femur. On day 35 the animals were randomized to RKI-1447 or a carrier control. Following 3 weeks of treatment week, engraftment of AML cells in BM was evaluated using flow cytometry. Both lymphoid (CD19+ B cells) and myeloid lineages (CD45dimCD33+) are detected, but dominantly are myeloid graft, in our AML-PDX models. […] To determine the grafts origin from srsf2 mutated LSC/ pre-leukaemic HSCs, human cells (CD45+) were isolated from the total BM cells and amplicon sequence of SRSF2 was performed.

The test system of series [6] is isogenic SRSF2 mutant and wild-type cell lines. Put plainly: RNA sequencing and proteomics with pre ranked GSEA before and after RKI-1447. Format: cell-based, human. Conditions: both mutant and wild-type cells after exposure to RKI-1447.
Source text: as §4

Where [7] appears, read: 0.5 μM RKI-1447 compared to untreated control, MOLM14 SRSF2 mutant.

For `C[C@@H](N)c1ccc(C(=O)Nc2ccnc3[nH]ccc23)cc1` [Y-39983], the “response of mutant cell line to ROCK inhibitor (cytotoxic efficacy mutant versus WT)” value in series [1] and in series [2] was “responded” in each case.

As to `CC1=C(C(=O)Nc2cc3cn[nH]c3cc2F)C(c2ccc(C(F)(F)F)cc2)CC(=O)N1` (stereo not drawn) [GSK429286A], the “response of mutant cell line to ROCK inhibitor (cytotoxic efficacy mutant versus WT)” value in series [1] and in series [2] was “responded” each time.

In the case of `CC1=C(C(=O)Nc2ccc3[nH]ncc3c2)C(c2ccc(F)cc2)NC(=O)N1` (stereo not drawn) [GSK180736A], the “response of mutant cell line to ROCK inhibitor (cytotoxic efficacy mutant versus WT)” value in series [1] and in series [2] was “responded” in each case.

`O=C(NCc1cccc(O)c1)Nc1nc(-c2ccncc2)cs1` [RKI-1447]: the “response of mutant cell line to ROCK inhibitor (cytotoxic efficacy mutant versus WT)” value in series [1] is recorded as “responded”. Also, in series [2], the “response of mutant cell line to ROCK inhibitor (cytotoxic efficacy mutant versus WT)” value is on record as “responded”. Moreover, the “cell cycle difference in MOLM14 SRSF2 mutant relative to wild type” value in series [3] (0.5 μM RKI-1447, P<0.01) is “more pronounced”. In series [3] (setting [7]), the “percentage of G0/G1 phase cells” value is “decrease in the percentage”; the “percentage of G2/M and S phase cells” value is “higher percentage”. In series [4], the “percentage of G0/G1 phase cells” value is “decrease in the percentage”; the “percentage of G2/M and S phase cells” value is recorded as “higher percentage”. Moreover, in the series on SRSF2 mutant cells, the apoptosis result is reported as “apoptosis”; the nuclear morphology result is “nucleus invagination and deformations”. In addition, the “engraftment (number of CD45+ cells)” value in series [5] is “significant decrease of engraftment”. Besides, the “engraftment rate of AML cells in BM (flow cytometry)” value in the series on SRSF2 mutated AML is listed as “significant lower engraftment rate”. Besides, the “pre ranked GSEA, regulated pathways” value in series [6] was “cell cycle is one of the most significantly up-regulated pathways”.
